Experimental data reported in PubChem BioAssay (NCI).
Values joined by “and” are separate entries in the source; they are usually repeats but may differ in a detail not shown here. Equal values may be shown once.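 Grown in 96-well plates, cells were treated for 48 hours with each compound at five concentrations. Insufficient inhibition: endpoint recorded as highest concentration tested. GI50 = concentration required for 50% inhibition of growth. TGI is the concentration that stops growth completely.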 Where a SMILES comes first, the peptide text is derived from it. The star is where a group is joined. Trt = c1ccc(C(c2ccccc2)(c2ccccc2)*)cc1; Cbz = O=C(OCc1ccccc1)*

Experiments:
Assay in all cases: NCI tumour cell line growth inhibition, 48 h
SNB-19 CNS = test system: SNB-19 CNS
OVCAR-5 ovarian = test system: OVCAR-5 ovarian
TK-10 renal = test system: TK-10 renal
CAKI-1 renal = test system: CAKI-1 renal
A549 NSCLC = test system: A549 NSCLC
UACC-62 melanoma = test system: UACC-62 melanoma
UACC-257 melanoma = test system: UACC-257 melanoma
A498 renal = test system: A498 renal

Structure (SMILES)	GI50 (SNB-19 CNS)	TGI (SNB-19 CNS) [µM]	GI50 (OVCAR-5 ovarian)	TGI (OVCAR-5 ovarian) [µM]	GI50 (TK-10 renal) [µM]	TGI (TK-10 renal) [µM]	GI50 (CAKI-1 renal) [µM]	TGI (CAKI-1 renal) [µM]	GI50 (A549 NSCLC)	TGI (A549 NSCLC) [µM]	GI50 (UACC-62 melanoma) [µM]	TGI (UACC-62 melanoma) [µM]	GI50 (UACC-257 melanoma)	TGI (UACC-257 melanoma)	GI50 (A498 renal)	TGI (A498 renal)
Nc1c(C(=O)Nc2cccc3ccccc23)sc2nc3c(cc12)C(=O)CCC3	0.603 µM	> 81	0.604 µM	> 100	12.9	> 100	0.359	> 100	0.172 µM	> 46.1	0.166	> 75.8	0.183 µM	> 65.8 µM	0.0463 µM	1.55 µM
COc1ccc(-c2nc(C(=O)c3ccccc3)n(CC(=O)c3ccc(Cl)cc3)c2-c2ccc(OC)cc2)cc1	> 100 µM	> 100	> 100 µM	> 100	> 100	> 100	> 100	> 100	> 100 µM	> 100	> 100	> 100	> 100 µM	> 100 µM	> 100 µM	> 100 µM
O=S(=O)(O)SCCNCCCCCC1CCCCC1		10.8		23.8		20.7		35.4		23		4.22		19.5 µM		40.6 µM
COC(=O)C(CSC(c1ccccc1)(c1ccccc1)c1ccccc1)NC(=O)C(CC(N)=O)NC(=O)OCc1ccccc1 (stereo not drawn) (Cbz-Asn-Cys(Trt)-OMe; configuration not given here)	5.22 µM	18.9	7.23 µM	20.2	5.69	26.8	3.51	14.3	4.38 µM	51.7	3.15	14.1	8.92 µM	21.7 µM	3.67 µM	13.8 µM
COc1cccc2c1cc1c3c(cc4c(c32)OCO4)C(=O)N1	6.37 µM	> 100	6.56 µM	> 100	2.27	6.27	22.4	> 100	5.27 µM	> 100	4.65	> 100	27.3 µM	> 100 µM	0.0914 µM	4 µM
CC(C(N)=O)N(C)C(=O)c1cnc2ccccc2c1 (configuration not stated)		> 100		> 100		> 100		> 100		> 100		> 100		> 100 µM		> 100 µM
Cc1c(Cl)cccc1NC(=O)c1sc2nc3c(cc2c1N)CCCC3	0.979 µM	> 100	> 100 µM	> 100	> 100	> 100	1.01	> 100	0.984 µM	> 100	0.6	> 100	0.688 µM	> 100 µM	0.413 µM	> 100 µM
CCCOC(=O)C1C2CCC(O2)C1C(=O)O (configuration not stated)		> 100		> 100		> 100		> 100		> 100		> 100		> 100 µM		> 100 µM
O=C1/C(=C\c2ccccc2)C2OCC=C3CN4CCC56c7ccccc7N1C5C2C3CC46 (configuration not stated)	> 100 µM	> 100	> 100 µM	> 100	7.23	73.3	2.18	32.1	> 100 µM	> 100	1.83	4.06	2.16 µM	4.11 µM	3.56 µM	48 µM
CCCCCCCCCCSC(=N)N	5.17 µM	19.2	9.84 µM	23.5	1.61	4.09	1.75	5.26	5.59 µM	18.6	1.98	4.45	2.51 µM	6.32 µM	4.69 µM	19.3 µM
Cc1cc(Br)cc(C)c1NC(=O)C(=O)Nn1c(=S)[nH]c2ccccc2c1=O		> 100		> 100		> 100		> 100		> 100		> 100		> 100 µM		> 100 µM
Cc1cc2nc(-c3c(F)cccc3Cl)n(Cc3c(F)cccc3Cl)c2cc1C	25.5 µM	93.7	15.9 µM	34.1	15.1	46.5	2.92	14.6	11.7 µM	33.1	6.41	19.3	16.4 µM	38.3 µM	15.5 µM	32.2 µM
CCOC(=O)c1c(C)n(Cc2ccccc2)c2c1cc1oc(=O)c(=O)n3cnc2c13	42.4 µM	> 50	36.9 µM	> 50	15.7	42.6	14.7	48.8	13.6 µM	45.7	16.6	> 50	17 µM	48.3 µM	11 µM	49.8 µM
O=C(/C=C/c1ccco1)c1ccc(Nc2nc(Nc3ccc(F)cc3)nc(Nc3ccc(F)cc3)n2)cc1	20.5 µM	70.8	47.6 µM	> 100	48.4	> 100	26.7	60.5	19.8 µM	> 100	> 100	> 100	> 100 µM	> 100 µM	7.28 µM	> 100 µM
O=C(NOCCO)c1cc(CN2OCCCC2=O)c(F)c(F)c1Nc1ccc(I)cc1F	3.68 µM and 1.64 µM	> 100	< 0.01 µM and 0.00485 µM	> 100		> 100	0.29	> 40.5	0.464 µM and 0.156 µM	> 86.2	< 0.01		< 0.01 µM and 0.00204 µM	0.0393 µM and < 0.0128 µM	< 0.01 µM and 0.00948 µM	0.0355 µM and 0.115 µM
CN(C(=O)CNC(=O)/C=C/c1cccc(Cl)c1)C1CCS(=O)(=O)CC1	> 100 µM	> 100	8.5 µM	> 100	2.27	> 100	3.78	> 100	> 100 µM	> 100	0.986	> 100	> 100 µM	> 100 µM	0.421 µM	> 100 µM
